Consider four compounds from US7160894B2, “Tricyclic compound” (Asahi Kasei Pharma Corporation, priority 2003, dated 2007).

The test system of experiment [1] is cerebral hippocampal neurons. Briefly: Neurite outgrowth action (Test Example 5). Type of experiment: cell-based, Sprague-Dawley rats. To be noted: rat hippocampal neurons, 24 hours after addition. As for the experimental part: From 18 day-old Sprague-Dawley rats, cerebral hippocampal neurons were prepared according to the method of Neuman et al. (Neuman, H. R. et al., J. Neurosci., 22, pp. 854–862, 2002). The prepared neurons were cultured for 24 hours according to the method of Tanaka et al. (Tanaka, H. et al., J. Cell Biol., 158 (2), pp. 321–329, 2002), then the medium was exchanged with fresh medium, and test medicaments of various concentrations or equivalent amounts of vehicle were added. Twenty-four hours after the addition of the medicaments, neurite length of each neuron was measured for the medicament-added group and the no-addition group, and compared. The neurite length was evaluated according to the method of Neuman et al. (Neuman, H. R. et al., J. Neurosci., 22, pp. 854–862, 2002).

For experiment [2], the system named is ovalbumin-induced constriction of respiratory tract. The experiment is described as follows: Respiratory tract constriction suppressing action, intravenous administration (Test Example 3). Type of experiment: in vivo, Hartley guinea pigs. Particulars: ovalbumin-immunized guinea pigs, administered from cannula in hind leg vein, measured for 15 minutes. As for the experimental part: Four-week old Hartley guinea pigs (male) were immunized by intraperitoneal administration of ovalbumin (Sigma, Grade V) in amounts of 1 mg for each animal on the day on which the experiment was started, 3 mg for each animal after 2 days, and 10 mg for each animal after 4 days. Twelve to fourteen days after the final immunization, the ovalbumin-immunized guinea pigs were anesthetized by intraperitoneal administration of about 40 mg/kg of pentobarbital (Somnopentyl), and the tracheas were taken out. Subsequently, a cannula (SP-110, Natsume) was inserted into each trachea, and one end of the cannula was connected to an artificial respirator (Model-b83, Harvard). The aeration conditions were set at 6 ml per kilogram and 60 times per 1 minute. Further, a cannula for medicament administration (JMS wing needle 23G 3/4) was inserted into a hind leg vein. Myoblock (Organon Technica) was administered in an amount of 0.5 mg/kg from the cannula inserted into the hind leg vein to stop the spontaneous breathing, and after 2 or 3 minutes, 0.3 mg/kg of ovalbumin was administered to induce constriction of respiratory tract. The increase of airway resistance value 2 minutes after the induction (measurement apparatuses: pressure transducer TR-603T, respiratory amplifier AR-601G, and recorder RTA-3100, Nihon Kohden Corp.) was confirmed to be above 80 cm H2O or higher, and then, a solution of a test medicament was administered from the cannula inserted into the hind leg vein, and the airway resistance value was continuously measured for 15 minutes after the administration to determine the effect.

Experiment [3] shares this test system. Briefly: Respiratory tract constriction suppressing action, administration by inhalation (Test Example 3). The format is in vivo, Hartley guinea pigs. Particulars: ovalbumin-immunized guinea pigs, 2 ml solution by inhalation over 5 minutes. The method, then: Four-week old Hartley guinea pigs (male) were immunized by intraperitoneal administration of ovalbumin (Sigma, Grade V) in amounts of 1 mg for each animal on the day on which the experiment was started, 3 mg for each animal after 2 days, and 10 mg for each animal after 4 days. Further, the respiratory tract constriction suppression action of the test compounds was also evaluated by inhalation. Twelve to fourteen days after the final sensitization, 10 mg/kg of pyrilamine (Sigma), 5 mg/kg of indomethacin (Wako), or 0.1 mg/kg of propranolol (Sigma) was intraperitoneally administered. Then, 30 minutes after the administration, a 0.1% ovalbumin aqueous solution was inhaled by using a pressurization type nebulizer (PARI-IS2) to induce constriction of the respiratory tract. Ten minutes after the induction, 2 ml of a solution of a test compound prepared at various concentrations was filled in the aforementioned nebulizer, and administered by inhalation over 5 minutes. After the administration of pyrilamine and other drugs, airway resistance value was continuously measured to determine effectiveness.

For experiment [4], the system named is thoracic aorta constricted with phenylephrine. Briefly: Vasoconstriction inhibitory action (Test Example 2). Particulars: test compound 1 μM; rat thoracic aorta constricted with phenylephrine 1 μM. Also noted: species or system Rats (Wistar). From the text: Rats (Wistar, 11-week old) were bleeded to death and laparotomized to take out the thoracic aorta. That aorta was cut into a ring of a length of about 3 mm in a conventional manner (Asano, T., et al., J. Pharmacol. Exp. Ther., 241, pp. 1033–1040 (1987)) and hung in 10-ml organ bath filled with Krebs-Hensright nutrient solution bubbled with a mixed gas of 95% O2 and 5% CO2. One end of the blood vessel was connected to an isometric transducer (FD Pickup TB-912T, Nihon Kohden) and applied with 2.5 g of resting tension, and constriction and relaxation reactions of the aorta were recorded.
The aorta was constricted with phenylephrine (1 μM, Sigma) and then added with a test compound (1 μM), and the vasoconstriction inhibitory action thereof was observed. The vasoconstriction inhibitory actions of the test compounds were calculated as relaxation ratios, which were based on the vasoconstriction with phenylephrine observed immediately before the addition of the test compounds taken as 100%.

For experiment [5], the system named is lipopolysaccharide-induced pulmonary inflammation. The experiment is described as follows: Pulmonary inflammation suppressing action, LPS-induced (Test Example 8). The format is in vivo, BALB/c female mice. To be noted: mice, LPS inhalation, test compound by inhalation over 10 minutes, 3 hours after administration. From the text: According to Gonzales de Moraes, V L., et al., Br. J. Pharmacol., 123, pp. 631–6, 1998, suppressing action on pulmonary inflammation was studied. BALB/c female mice (7-week old) were used for the test, as the compound administration group and positive control group, each consisting of 7 mice, as well as the negative control group consisting of 5 mice. For induction of inflammation, a 0.03% physiological saline solution of a lipopolysaccharide (LPS, a mixture derived from Escherichia coli O55 and B5 strains, Sigma) was used. A test compound was dissolved in physiological saline to prepare solutions of various concentrations. The test animals were first inhaled with the aforementioned lipopolysaccharide solution for 10 minutes by using a pressurization type nebulizer (PARI-IS2) to induce inflammation. Then, 1 minute after the completion of the inhalation of the lipopolysaccharide solution, the animals were administered with a solution of test compound at various concentrations over 10 minutes by inhalation using the aforementioned nebulizer. The mice of the positive control group were administered with the same volume of physiological saline instead of the test compound solution over 10 minutes by inhalation. Three hours after the administration of the test compound, pulmonary cavities of the test animals were washed with physiological saline, and the total infiltrated leucocyte (WBC) number was counted.

In a further experiment the test system is intraocular pressure. Briefly: Intraocular pressure reducing action (Test Example 4). Type of experiment: in vivo, Japanese white rabbit. Particulars: rabbit, 50 μl of aqueous solution dropped to the left eye. The method, then: A Japanese white rabbit having a body weight of about 2 kg was placed in a positioner and naturalized for one week before the experiment. An ophthalmologic local anesthesant (Benoxil) was administered to the left eye, and then intraocular pressure was measured by using a tonometer (Classic 30, Solan). The initial value of the intraocular pressure was measured, then 50 μl of an aqueous solution of a test compound was dropped to the left eye at various concentrations, and the intraocular pressure was measured with passage of time.

The subject of experiment [6] is myosin regulatory light chain. To be noted: mesenteric artery, iris smooth muscle, astrocyte; cited from earlier work.

Turning to `Cl.O=C(O)CN1CCC(N2CCc3cncc4cccc2c34)CC1` [Example 17], the “neurite outgrowth (neurite length)” value in experiment [1] was “significant neurite outgrowth axis extension”. Further, the “improvement of constriction of respiratory tract (airway resistance value)” value (“improvement” below) in experiment [2] and in experiment [3] was “significantly improved the constriction of respiratory tract” in each case. Besides, the “vasoconstriction inhibitory action (relaxation ratio)” value in experiment [4] is on record as “significant vasoconstriction inhibitory action”. The “pulmonary inflammation, total infiltrated leucocyte (WBC) number” value (“pulmonary inflammation” for short) in experiment [5] is “significantly improved the pathological condition”.

With `Cl.NC(=O)CN1CCC(N2CCc3cncc4cccc2c34)CC1` [Example 20], the “neurite outgrowth (neurite length)” value in experiment [1] is “significant neurite outgrowth axis extension”. Besides, the “improvement” value in experiment [2] and in experiment [3] was “significantly improved the constriction of respiratory tract” throughout. The “intraocular pressure reducing action” value with intraocular pressure is reported as “significant intraocular pressure reducing action”. Further, in experiment [4], the “vasoconstriction inhibitory action (relaxation ratio)” value is “significant vasoconstriction inhibitory action”. Besides, in experiment [5], the “pulmonary inflammation” value is given as “significantly improved the pathological condition”.

In the case of `Cl.NCCN[C@H]1CC[C@H](N2CCc3cncc4cccc2c34)CC1` [Example 24], the “neurite outgrowth (neurite length)” value in experiment [1] is listed as “significant neurite outgrowth axis extension”. Besides, the “improvement” value in experiment [2] and in experiment [3] was “significantly improved the constriction of respiratory tract” in each case. For the same compound, the “vasoconstriction inhibitory action (relaxation ratio)” value in experiment [4] was “significant vasoconstriction inhibitory action”. In addition, in experiment [5], the “pulmonary inflammation” value was “significantly improved the pathological condition”.

Consider `CC1CNCCN1S(=O)(=O)c1cccc2cnccc12` (centres unmarked) [Example H-7, 1-(5-isoquinolinesulfonyl)-2-methylpiperazine], for which, in experiment [6], the “inhibition of phosphorylation of the myosin regulatory light chain” value was “inhibits phosphorylation of the myosin regulatory light chain”.
